Experimental data reported in ChEMBL document CHEMBL1143152, “Calcitonin gene-related peptide (CGRP) receptor antagonists: investigations of a pyridinone template” (Bioorg Med Chem Lett, 2008).
One block for each compound: values may come before it.

How the values were obtained:
[1] = target: T1, Calcitonin gene-related peptide type 1 receptor (Homo sapiens, UniProt O60894+Q16602); test: Displacement of [125I]CGRP from human recombinant CL receptor /RAMP1
[2] = target: T1, Calcitonin gene-related peptide type 1 receptor; test: Antagonist activity at human recombinant CL receptor /RAMP1 assessed as inhibition of cAMP accumulation by cell based assay; type: functional
[3] = target: T1, Calcitonin gene-related peptide type 1 receptor; test: Antagonist activity at human recombinant CL receptor /RAMP1 assessed as inhibition of cAMP accumulation in presence of 50% human serum by cell based assay; type: functional
[4] = Clearance in rat at 2.0 mg/kg, iv and 10 mg/kg, po; type: ADME, organism-based; conditions: in vivo
[5] = Cmax in dog at 0.5 mg/kg, iv and 1.0 mg/kg, po; type: ADME, organism-based, Canis lupus familiaris; conditions: in vivo
[6] = Half life in rat at 2.0 mg/kg, iv and 10 mg/kg, po; type: ADME, organism-based; conditions: in vivo
[7] = Bioavailability in dog at 1.0 mg/kg, po; type: ADME, organism-based, Canis lupus familiaris; conditions: in vivo
[8] = Bioavailability in rat at 10 mg/kg, po; type: ADME, organism-based; conditions: in vivo
[9] = Clearance in dog at 0.5 mg/kg, iv and 1.0 mg/kg, po; type: ADME, organism-based, Canis lupus familiaris; conditions: in vivo
[10] = Half life in dog at 0.5 mg/kg, iv and 1.0 mg/kg, po; type: ADME, organism-based, Canis lupus familiaris; conditions: in vivo
[11] = Cmax in rat at 2.0 mg/kg, iv and 10 mg/kg, po; type: ADME, organism-based; conditions: in vivo

T1 sequence (Q16602 whole entry, one chain of several): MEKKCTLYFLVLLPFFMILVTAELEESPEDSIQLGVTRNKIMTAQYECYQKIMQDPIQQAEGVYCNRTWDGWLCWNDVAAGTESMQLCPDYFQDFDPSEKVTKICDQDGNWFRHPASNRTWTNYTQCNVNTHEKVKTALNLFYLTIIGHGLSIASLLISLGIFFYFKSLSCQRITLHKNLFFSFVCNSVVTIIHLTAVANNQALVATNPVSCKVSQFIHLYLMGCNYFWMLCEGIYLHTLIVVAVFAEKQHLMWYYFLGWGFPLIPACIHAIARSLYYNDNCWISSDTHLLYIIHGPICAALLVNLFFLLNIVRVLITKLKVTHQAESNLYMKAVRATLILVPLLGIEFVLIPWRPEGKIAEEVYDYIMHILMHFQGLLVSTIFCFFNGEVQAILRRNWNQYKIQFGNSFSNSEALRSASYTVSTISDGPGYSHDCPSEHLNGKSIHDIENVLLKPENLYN

Ki [1]: 80 nM
IC50 [2]: 360 nM
SMILES: O=C(Nc1cc(-c2ccccc2)cn(CC2CC2)c1=O)N1CCC(n2cc(-c3ccccc3)[nH]c2=O)CC1

Ki [1]: 2050 nM
SMILES: Cn1cc(C2C=NC=N2)cc(NC(=O)N2CCC(n3c(=O)[nH]c4ncccc43)CC2)c1=O (stereo not given)

Ki [1]: 74 nM
IC50 [3]: 280 nM
IC50 [2]: 170 nM
SMILES: COCCn1cc(-c2ccc(O)cc2)cc(NC(=O)N2CCC(n3c(=O)[nH]c4ncccc43)CC2)c1=O

Ki [1]: 96 nM
IC50 [3]: 971 nM
IC50 [2]: 282 nM
SMILES: O=C(Nc1cc(-c2ccc(O)cc2)cn(CC(F)(F)F)c1=O)N1CCC(n2c(=O)[nH]c3ncccc32)CC1

Ki [1]: 166 nM
IC50 [2]: 567 nM
SMILES: Cn1cc(-c2cccc(F)c2F)cc(NC(=O)N2CCC(n3c(=O)[nH]c4ncccc43)CC2)c1=O

Ki [1]: 270 nM
IC50 [2]: 1070 nM
SMILES: Cn1cc(-c2cccnc2)cc(NC(=O)N2CCC(n3c(=O)[nH]c4ncccc43)CC2)c1=O

clearance [4]: 2.3 mL/min/kg
Cmax [5]: 10.3 µM
half-life [6]: 2.5 h
Ki [1]: 95 nM
bioavailability [7]: 58%
bioavailability [8]: 31%
clearance [9]: 0.2 mL/min/kg
half-life [10]: 3.7 h
Cmax [11]: 5.3 µM
IC50 [2]: 209 nM
SMILES: O=C(Nc1cc(-c2ccccc2)cn(CC(F)(F)F)c1=O)N1CCC(n2c(=O)[nH]c3ncccc32)CC1

clearance [4]: 1.3 mL/min/kg
half-life [6]: 3 h
Ki [1]: 498 nM
bioavailability [8]: 40%
IC50 [3]: 10900 nM
Cmax [11]: 20.3 µM
IC50 [2]: 495 nM
SMILES: Cn1cc(-c2ccccc2)cc(NC(=O)N2CCC(n3c(=O)[nH]c4ncccc43)CC2)c1=O

Ki [1]: 140 nM
IC50 [3]: 394 nM
IC50 [2]: 307 nM
SMILES: COCCn1cc(-c2ccn[nH]2)cc(NC(=O)N2CCC(n3c(=O)[nH]c4ncccc43)CC2)c1=O

Ki [1]: 205 nM
IC50 [3]: 1420 nM
IC50 [2]: 550 nM
SMILES: O=C(Nc1cc(-c2ccn[nH]2)cn(CC(F)(F)F)c1=O)N1CCC(n2c(=O)[nH]c3ncccc32)CC1

Ki [1]: 220 nM
IC50 [2]: 827 nM
SMILES: Cn1cc(-c2ccccc2O)cc(NC(=O)N2CCC(n3c(=O)[nH]c4ncccc43)CC2)c1=O

Ki [1]: 42 nM
IC50 [3]: 715 nM
IC50 [2]: 142 nM
SMILES: Cn1cc(-c2cccc(O)c2)cc(NC(=O)N2CCC(n3c(=O)[nH]c4ncccc43)CC2)c1=O

Ki [1]: 495 nM
IC50 [2]: 1530 nM
SMILES: COc1ccc(-c2cc(NC(=O)N3CCC(n4c(=O)[nH]c5ncccc54)CC3)c(=O)n(C)c2)cc1

Ki [1]: 155 nM
IC50 [2]: 337 nM
SMILES: Cn1cc(-c2cccc(F)c2)cc(NC(=O)N2CCC(n3c(=O)[nH]c4ncccc43)CC2)c1=O

Ki [1]: 213 nM
IC50 [2]: 477 nM
SMILES: Cn1cc(-c2ccccc2F)cc(NC(=O)N2CCC(n3c(=O)[nH]c4ncccc43)CC2)c1=O

Ki [1]: 41 nM
IC50 [3]: 1000 nM
IC50 [2]: 164 nM
SMILES: COCCn1cc(-c2cccc(F)c2F)cc(NC(=O)N2CCC(n3c(=O)[nH]c4ncccc43)CC2)c1=O

Ki [1]: 3400 nM
SMILES: O=C(Nc1ccc(-c2ccccc2)n(CC2CC2)c1=O)N1CCC(n2cc(-c3ccccc3)[nH]c2=O)CC1

clearance [4]: 8.9 mL/min/kg
half-life [6]: 1 h
Ki [1]: 75 nM
bioavailability [8]: 47%
Cmax [11]: 7.4 µM
IC50 [2]: 330 nM
SMILES: Cn1cc(-c2ccsc2)cc(NC(=O)N2CCC(n3c(=O)[nH]c4ncccc43)CC2)c1=O

Ki [1]: 54 nM
IC50 [2]: 186 nM
SMILES: O=C(Nc1cc(-c2ccccc2F)cn(CC(F)(F)F)c1=O)N1CCC(n2c(=O)[nH]c3ncccc32)CC1

Cmax [5]: 0.3 µM
Ki [1]: 71 nM
bioavailability [7]: 6%
IC50 [3]: 872 nM
clearance [9]: 2.8 mL/min/kg
half-life [10]: 1.2 h
IC50 [2]: 184 nM
SMILES: Cn1cc(C2C=CN=N2)cc(NC(=O)N2CCC(n3c(=O)[nH]c4ncccc43)CC2)c1=O (stereo not given)

Ki [1]: 695 nM
IC50 [2]: 1190 nM
SMILES: COCCn1cc(-c2cccnc2)cc(NC(=O)N2CCC(n3c(=O)[nH]c4ncccc43)CC2)c1=O

Ki [1]: 9000 nM
SMILES: Cn1cc(-c2ccc(C(=O)O)cc2)cc(NC(=O)N2CCC(n3c(=O)[nH]c4ncccc43)CC2)c1=O

clearance [4]: 9.6 mL/min/kg
half-life [6]: 0.9 h
Ki [1]: 105 nM
bioavailability [8]: 44%
Cmax [11]: 5.1 µM
IC50 [2]: 345 nM
SMILES: O=C(Nc1cc(-c2ccsc2)cn(CC(F)(F)F)c1=O)N1CCC(n2c(=O)[nH]c3ncccc32)CC1

Ki [1]: 170 nM
IC50 [2]: 302 nM
SMILES: O=C(Nc1cc(-c2ccccc2)cn(CC2CC2)c1=O)N1CCC(n2c(=O)[nH]c3ncccc32)CC1

Ki [1]: 1750 nM
SMILES: Cn1cc(-c2ccc(S(C)(=O)=O)cc2)cc(NC(=O)N2CCC(n3c(=O)[nH]c4ncccc43)CC2)c1=O

clearance [4]: 16.1 mL/min/kg
Cmax [5]: 0.6 µM
half-life [6]: 1.1 h
Ki [1]: 43 nM
bioavailability [7]: 3%
bioavailability [8]: 2%
clearance [9]: 0.6 mL/min/kg
half-life [10]: 2.9 h
Cmax [11]: 0.1 µM
IC50 [2]: 88 nM
SMILES: Cn1cc(-c2ccc(O)cc2)cc(NC(=O)N2CCC(n3c(=O)[nH]c4ncccc43)CC2)c1=O

clearance [4]: 0.8 mL/min/kg
Cmax [5]: 9.4 µM
half-life [6]: 6.3 h
Ki [1]: 17 nM
bioavailability [7]: 65%
bioavailability [8]: 34%
IC50 [3]: 811 nM
clearance [9]: 0.2 mL/min/kg
half-life [10]: 3.3 h
Cmax [11]: 9.4 µM
IC50 [2]: 18 nM
SMILES: O=C(Nc1cc(-c2cccc(F)c2F)cn(CC(F)(F)F)c1=O)N1CCC(n2c(=O)[nH]c3ncccc32)CC1

clearance [4]: 23.5 mL/min/kg
half-life [6]: 2.8 h
Ki [1]: 390 nM
bioavailability [8]: 1%
Cmax [11]: 0.08 µM
IC50 [2]: 540 nM
SMILES: COCCn1cc(-c2ccsc2)cc(NC(=O)N2CCC(n3c(=O)[nH]c4ncccc43)CC2)c1=O

Ki [1]: 42 nM
IC50 [2]: 119 nM
SMILES: O=C(Nc1cc(-c2cccc(F)c2)cn(CC(F)(F)F)c1=O)N1CCC(n2c(=O)[nH]c3ncccc32)CC1

clearance [4]: 25.3 mL/min/kg
half-life [6]: 0.5 h
Ki [1]: 228 nM
bioavailability [8]: 37%
Cmax [11]: 1.3 µM
IC50 [2]: 665 nM
SMILES: COCCn1cc(-c2ccccc2)cc(NC(=O)N2CCC(n3c(=O)[nH]c4ncccc43)CC2)c1=O

Cmax [5]: 7.4 µM
Ki [1]: 635 nM
bioavailability [7]: 56%
clearance [9]: 0.3 mL/min/kg
half-life [10]: 5.4 h
IC50 [2]: 651 nM
SMILES: O=C(Nc1cc(-c2cccnc2)cn(CC(F)(F)F)c1=O)N1CCC(n2c(=O)[nH]c3ncccc32)CC1

Ki [1]: 1900 nM
SMILES: Cn1cc(-c2ncccn2)cc(NC(=O)N2CCC(n3c(=O)[nH]c4ncccc43)CC2)c1=O
